From patent US7160894B2, “Tricyclic compound” (Asahi Kasei Pharma Corporation, priority 2003, dated 2007)

Columns and labels:
[1] = test system: myosin regulatory light chain; settings: mesenteric artery, iris smooth muscle, astrocyte; cited from earlier work
[2] = test system: thoracic aorta constricted with phenylephrine; assay: Vasoconstriction inhibitory action (Test Example 2); set-up: species or system Rats (Wistar); settings: test compound 1 μM; rat thoracic aorta constricted with phenylephrine 1 μM
Excerpt: Rats (Wistar, 11-week old) were bleeded to death and laparotomized to take out the thoracic aorta. That aorta was cut into a ring of a length of about 3 mm in a conventional manner (Asano, T., et al., J. Pharmacol. Exp. Ther., 241, pp. 1033–1040 (1987)) and hung in 10-ml organ bath filled with Krebs-Hensright nutrient solution bubbled with a mixed gas of 95% O2 and 5% CO2. One end of the blood vessel was connected to an isometric transducer (FD Pickup TB-912T, Nihon Kohden) and applied with 2.5 g of resting tension, and constriction and relaxation reactions of the aorta were recorded.
The aorta was constricted with phenylephrine (1 μM, Sigma) and then added with a test compound (1 μM), and the vasoconstriction inhibitory action thereof was observed. The vasoconstriction inhibitory actions of the test compounds were calculated as relaxation ratios, which were based on the vasoconstriction with phenylephrine observed immediately before the addition of the test compounds taken as 100%.

[3] = test system: ovalbumin-induced constriction of respiratory tract; assay: Respiratory tract constriction suppressing action, intravenous administration (Test Example 3); assay type: in vivo, Hartley guinea pigs; settings: ovalbumin-immunized guinea pigs, administered from cannula in hind leg vein, measured for 15 minutes
Method: Four-week old Hartley guinea pigs (male) were immunized by intraperitoneal administration of ovalbumin (Sigma, Grade V) in amounts of 1 mg for each animal on the day on which the experiment was started, 3 mg for each animal after 2 days, and 10 mg for each animal after 4 days. Twelve to fourteen days after the final immunization, the ovalbumin-immunized guinea pigs were anesthetized by intraperitoneal administration of about 40 mg/kg of pentobarbital (Somnopentyl), and the tracheas were taken out. Subsequently, a cannula (SP-110, Natsume) was inserted into each trachea, and one end of the cannula was connected to an artificial respirator (Model-b83, Harvard). The aeration conditions were set at 6 ml per kilogram and 60 times per 1 minute. Further, a cannula for medicament administration (JMS wing needle 23G 3/4) was inserted into a hind leg vein. Myoblock (Organon Technica) was administered in an amount of 0.5 mg/kg from the cannula inserted into the hind leg vein to stop the spontaneous breathing, and after 2 or 3 minutes, 0.3 mg/kg of ovalbumin was administered to induce constriction of respiratory tract. The increase of airway resistance value 2 minutes after the induction (measurement apparatuses: pressure transducer TR-603T, respiratory amplifier AR-601G, and recorder RTA-3100, Nihon Kohden Corp.) was confirmed to be above 80 cm H2O or higher, and then, a solution of a test medicament was administered from the cannula inserted into the hind leg vein, and the airway resistance value was continuously measured for 15 minutes after the administration to determine the effect.

[4] = test system: ovalbumin-induced constriction of respiratory tract; assay: Respiratory tract constriction suppressing action, administration by inhalation (Test Example 3); assay type: in vivo, Hartley guinea pigs; settings: ovalbumin-immunized guinea pigs, 2 ml solution by inhalation over 5 minutes
Method: Four-week old Hartley guinea pigs (male) were immunized by intraperitoneal administration of ovalbumin (Sigma, Grade V) in amounts of 1 mg for each animal on the day on which the experiment was started, 3 mg for each animal after 2 days, and 10 mg for each animal after 4 days. Further, the respiratory tract constriction suppression action of the test compounds was also evaluated by inhalation. Twelve to fourteen days after the final sensitization, 10 mg/kg of pyrilamine (Sigma), 5 mg/kg of indomethacin (Wako), or 0.1 mg/kg of propranolol (Sigma) was intraperitoneally administered. Then, 30 minutes after the administration, a 0.1% ovalbumin aqueous solution was inhaled by using a pressurization type nebulizer (PARI-IS2) to induce constriction of the respiratory tract. Ten minutes after the induction, 2 ml of a solution of a test compound prepared at various concentrations was filled in the aforementioned nebulizer, and administered by inhalation over 5 minutes. After the administration of pyrilamine and other drugs, airway resistance value was continuously measured to determine effectiveness.

[5] = test system: intraocular pressure; assay: Intraocular pressure reducing action (Test Example 4); assay type: in vivo, Japanese white rabbit; settings: rabbit, 50 μl of aqueous solution dropped to the left eye
Method: A Japanese white rabbit having a body weight of about 2 kg was placed in a positioner and naturalized for one week before the experiment. An ophthalmologic local anesthesant (Benoxil) was administered to the left eye, and then intraocular pressure was measured by using a tonometer (Classic 30, Solan). The initial value of the intraocular pressure was measured, then 50 μl of an aqueous solution of a test compound was dropped to the left eye at various concentrations, and the intraocular pressure was measured with passage of time.

[6] = test system: cerebral hippocampal neurons; assay: Neurite outgrowth action (Test Example 5); assay type: cell-based, Sprague-Dawley rats; settings: rat hippocampal neurons, 24 hours after addition
Method: From 18 day-old Sprague-Dawley rats, cerebral hippocampal neurons were prepared according to the method of Neuman et al. (Neuman, H. R. et al., J. Neurosci., 22, pp. 854–862, 2002). The prepared neurons were cultured for 24 hours according to the method of Tanaka et al. (Tanaka, H. et al., J. Cell Biol., 158 (2), pp. 321–329, 2002), then the medium was exchanged with fresh medium, and test medicaments of various concentrations or equivalent amounts of vehicle were added. Twenty-four hours after the addition of the medicaments, neurite length of each neuron was measured for the medicament-added group and the no-addition group, and compared. The neurite length was evaluated according to the method of Neuman et al. (Neuman, H. R. et al., J. Neurosci., 22, pp. 854–862, 2002).

[7] = test system: lipopolysaccharide-induced pulmonary inflammation; assay: Pulmonary inflammation suppressing action, LPS-induced (Test Example 8); assay type: in vivo, BALB/c female mice; settings: mice, LPS inhalation, test compound by inhalation over 10 minutes, 3 hours after administration
Excerpt: According to Gonzales de Moraes, V L., et al., Br. J. Pharmacol., 123, pp. 631–6, 1998, suppressing action on pulmonary inflammation was studied. BALB/c female mice (7-week old) were used for the test, as the compound administration group and positive control group, each consisting of 7 mice, as well as the negative control group consisting of 5 mice. For induction of inflammation, a 0.03% physiological saline solution of a lipopolysaccharide (LPS, a mixture derived from Escherichia coli O55 and B5 strains, Sigma) was used. A test compound was dissolved in physiological saline to prepare solutions of various concentrations. The test animals were first inhaled with the aforementioned lipopolysaccharide solution for 10 minutes by using a pressurization type nebulizer (PARI-IS2) to induce inflammation. Then, 1 minute after the completion of the inhalation of the lipopolysaccharide solution, the animals were administered with a solution of test compound at various concentrations over 10 minutes by inhalation using the aforementioned nebulizer. The mice of the positive control group were administered with the same volume of physiological saline instead of the test compound solution over 10 minutes by inhalation. Three hours after the administration of the test compound, pulmonary cavities of the test animals were washed with physiological saline, and the total infiltrated leucocyte (WBC) number was counted.

CC1CNCCN1S(=O)(=O)c1cccc2cnccc12 (centres unmarked) [Example H-7, 1-(5-isoquinolinesulfonyl)-2-methylpiperazine]
inhibition of phosphorylation of the myosin regulatory light chain [1]: inhibits phosphorylation of the myosin regulatory light chain

Cl.NC(=O)CN1CCC(N2CCc3cncc4cccc2c34)CC1 [Example 20]
vasoconstriction inhibitory action (relaxation ratio) [2]: significant vasoconstriction inhibitory action
improvement of constriction of respiratory tract (airway resistance value) [3]: significantly improved the constriction of respiratory tract
improvement of constriction of respiratory tract (airway resistance value) [4]: significantly improved the constriction of respiratory tract
intraocular pressure reducing action [5]: significant intraocular pressure reducing action
neurite outgrowth (neurite length) [6]: significant neurite outgrowth axis extension
pulmonary inflammation, total infiltrated leucocyte (WBC) number [7]: significantly improved the pathological condition

Cl.NCCN[C@H]1CC[C@H](N2CCc3cncc4cccc2c34)CC1 [Example 24]
vasoconstriction inhibitory action (relaxation ratio) [2]: significant vasoconstriction inhibitory action
improvement of constriction of respiratory tract (airway resistance value) [3]: significantly improved the constriction of respiratory tract
improvement of constriction of respiratory tract (airway resistance value) [4]: significantly improved the constriction of respiratory tract
neurite outgrowth (neurite length) [6]: significant neurite outgrowth axis extension
pulmonary inflammation, total infiltrated leucocyte (WBC) number [7]: significantly improved the pathological condition

Cl.O=C(O)CN1CCC(N2CCc3cncc4cccc2c34)CC1 [Example 17]
vasoconstriction inhibitory action (relaxation ratio) [2]: significant vasoconstriction inhibitory action
improvement of constriction of respiratory tract (airway resistance value) [3]: significantly improved the constriction of respiratory tract
improvement of constriction of respiratory tract (airway resistance value) [4]: significantly improved the constriction of respiratory tract
neurite outgrowth (neurite length) [6]: significant neurite outgrowth axis extension
pulmonary inflammation, total infiltrated leucocyte (WBC) number [7]: significantly improved the pathological condition
